Data: ChEMBL document CHEMBL1150544, “C-3-N-acyl analogs of 9(R)-dihydrotaxol: synthesis and structure activity relationships” (Bioorg Med Chem Lett, 1994)
Values after ≈ are worked out from the molar mass of the structure shown.

Columns and labels:
P388 = test: In vitro cytotoxicity against P388-mouse leukemia cells.; assay type: functional, cell-based
B16-F10 = test: In vitro cytotoxicity against B16F10-mouse melanoma cells.; assay type: functional, cell-based
A549 = test: In vitro cytotoxicity against A549-human lung carcinoma cells.; assay type: functional, cell-based
HT-29 = test: In vitro cytotoxicity against HT29-human colon adenocarcinoma cells.; assay type: functional, cell-based
[1] = Antitumor activity relative to taxol.; assay type: functional

SMILES | IC50 (P388) [µg/mL] | IC50 (B16-F10) [µg/mL] | IC50 (A549) [µg/mL] | IC50 (HT-29) [µg/mL] | Ratio [1]
CC(=O)O[C@@H]1C2=C(C)[C@@H](OC(=O)[C@H](O)[C@@H](NC(=O)c3ccc(O)cc3)c3ccccc3)C[C@@](O)([C@@H](OC(=O)c3ccccc3)[C@@H]3[C@]4(OC(C)=O)CO[C@@H]4C[C@H](O)[C@@]3(C)[C@H]1O)C2(C)C | > 0.1 | > 0.1 | > 0.1 | 0.067 (≈ 0.0768 µM) | 1.07
CC(=O)O[C@@H]1C2=C(C)[C@@H](OC(=O)[C@H](O)[C@@H](NC(=O)c3ccc(C)cc3)c3ccccc3)C[C@@](O)([C@@H](OC(=O)c3ccccc3)[C@@H]3[C@]4(OC(C)=O)CO[C@@H]4C[C@H](O)[C@@]3(C)[C@H]1O)C2(C)C | 0.063 (≈ 0.0724 µM) | 0.025 (≈ 0.0287 µM) | 0.043 (≈ 0.0494 µM) | 0.012 (≈ 0.0138 µM) | 0.75
CC(=O)O[C@@H]1C2=C(C)[C@@H](OC(=O)[C@H](O)[C@@H](NC(=O)C(C)(C)C)c3ccccc3)C[C@@](O)([C@@H](OC(=O)c3ccccc3)[C@@H]3[C@]4(OC(C)=O)CO[C@@H]4C[C@H](O)[C@@]3(C)[C@H]1O)C2(C)C | 0.083 (≈ 0.0993 µM) | 0.035 (≈ 0.0419 µM) | 0.11 (≈ 0.132 µM) | < 0.01 | 2.36
CC(=O)O[C@@H]1C2=C(C)[C@@H](OC(=O)[C@H](O)[C@@H](NC(=O)OC(C)C)c3ccccc3)C[C@@](O)([C@@H](OC(=O)c3ccccc3)[C@@H]3[C@]4(OC(C)=O)CO[C@@H]4C[C@H](O)[C@@]3(C)[C@H]1O)C2(C)C | 0.0092 (≈ 0.011 µM) | 0.0022 (≈ 0.00263 µM) | 0.0012 (≈ 0.00143 µM) | 0.0008 (≈ 0.000955 µM) | 0.75
CC(=O)O[C@H]1C(=O)[C@@]2(C)[C@H]([C@H](OC(=O)c3ccccc3)[C@]3(O)C[C@H](OC(=O)[C@H](O)[C@@H](NC(=O)c4ccccc4)c4ccccc4)C(C)=C1C3(C)C)[C@]1(OC(C)=O)CO[C@@H]1C[C@@H]2O [PACLITAXEL] | 0.046 (≈ 0.0539 µM) | 0.0041 (≈ 0.0048 µM) | – | 0.0024 (≈ 0.00281 µM) | –
CCC(C)(C)OC(=O)N[C@@H](c1ccccc1)[C@@H](O)C(=O)O[C@H]1C[C@@]2(O)[C@@H](OC(=O)c3ccccc3)[C@@H]3[C@]4(OC(C)=O)CO[C@@H]4C[C@H](O)[C@@]3(C)[C@@H](O)[C@H](OC(C)=O)C(=C1C)C2(C)C | 0.0046 (≈ 0.00531 µM) | 0.0003 (≈ 0.000346 µM) | 0.001 (≈ 0.00115 µM) | 0.00067 (≈ 0.000774 µM) | 0.73
CC(=O)O[C@@H]1C2=C(C)[C@@H](OC(=O)[C@H](O)[C@@H](NC(=O)c3ccc(OCc4ccccc4)cc3)c3ccccc3)C[C@@](O)([C@@H](OC(=O)c3ccccc3)[C@@H]3[C@]4(OC(C)=O)CO[C@@H]4C[C@H](O)[C@@]3(C)[C@H]1O)C2(C)C | 0.053 (≈ 0.0551 µM) | 0.025 (≈ 0.026 µM) | 0.019 (≈ 0.0197 µM) | 0.008 (≈ 0.00832 µM) | 0.76
CCOC(=O)N[C@@H](c1ccccc1)[C@@H](O)C(=O)O[C@H]1C[C@@]2(O)[C@@H](OC(=O)c3ccccc3)[C@@H]3[C@]4(OC(C)=O)CO[C@@H]4C[C@H](O)[C@@]3(C)[C@@H](O)[C@H](OC(C)=O)C(=C1C)C2(C)C | 0.043 (≈ 0.0522 µM) | 0.018 (≈ 0.0218 µM) | 0.0057 (≈ 0.00692 µM) | 0.005 (≈ 0.00607 µM) | 0.82
CC(=O)O[C@@H]1C2=C(C)[C@@H](OC(=O)[C@H](O)[C@@H](NC(=O)OC(C)(C)C)c3ccccc3)C[C@@](O)([C@@H](OC(=O)c3ccccc3)[C@@H]3[C@]4(OC(C)=O)CO[C@@H]4C[C@H](O)[C@@]3(C)[C@H]1O)C2(C)C | – | – | 0.0003 (≈ 0.000352 µM) | – | 0.87
CC(=O)O[C@@H]1C2=C(C)[C@@H](OC(=O)[C@H](O)[C@@H](NC(=O)CC(C)(C)C)c3ccccc3)C[C@@](O)([C@@H](OC(=O)c3ccccc3)[C@@H]3[C@]4(OC(C)=O)CO[C@@H]4C[C@H](O)[C@@]3(C)[C@H]1O)C2(C)C | 0.052 (≈ 0.0612 µM) | 0.0056 (≈ 0.00659 µM) | 0.027 (≈ 0.0318 µM) | 0.009 (≈ 0.0106 µM) | 1.03
CC(=O)O[C@@H]1C2=C(C)[C@@H](OC(=O)[C@H](O)[C@@H](NC(=O)OC34CC5CC(CC(C5)C3)C4)c3ccccc3)C[C@@](O)([C@@H](OC(=O)c3ccccc3)[C@@H]3[C@]4(OC(C)=O)CO[C@@H]4C[C@H](O)[C@@]3(C)[C@H]1O)C2(C)C | 0.01 (≈ 0.0108 µM) | 0.0048 (≈ 0.00516 µM) | 0.0043 (≈ 0.00462 µM) | 0.0028 (≈ 0.00301 µM) | 1.54
CC(=O)N[C@@H](c1ccccc1)[C@@H](O)C(=O)O[C@H]1C[C@@]2(O)[C@@H](OC(=O)c3ccccc3)[C@@H]3[C@]4(OC(C)=O)CO[C@@H]4C[C@H](O)[C@@]3(C)[C@@H](O)[C@H](OC(C)=O)C(=C1C)C2(C)C | 2.02 (≈ 2.54 µM) | 1.1 (≈ 1.39 µM) | 2.1 (≈ 2.65 µM) | 0.27 (≈ 0.34 µM) | 3.17
CC(=O)O[C@@H]1C2=C(C)[C@@H](OC(=O)[C@H](O)[C@@H](NC(=O)NC(C)(C)C)c3ccccc3)C[C@@](O)([C@@H](OC(=O)c3ccccc3)[C@@H]3[C@]4(OC(C)=O)CO[C@@H]4C[C@H](O)[C@@]3(C)[C@H]1O)C2(C)C | 0.017 (≈ 0.02 µM) | 0.0046 (≈ 0.00541 µM) | 0.014 (≈ 0.0165 µM) | 0.0056 (≈ 0.00658 µM) | 1.06
CC(=O)O[C@@H]1C2=C(C)[C@@H](OC(=O)[C@H](O)[C@@H](NC(=O)c3ccco3)c3ccccc3)C[C@@](O)([C@@H](OC(=O)c3ccccc3)[C@@H]3[C@]4(OC(C)=O)CO[C@@H]4C[C@H](O)[C@@]3(C)[C@H]1O)C2(C)C | 0.034 (≈ 0.0402 µM) | 0.012 (≈ 0.0142 µM) | 0.0072 (≈ 0.00851 µM) | 0.0041 (≈ 0.00485 µM) | 0.73
CC(=O)O[C@@H]1C2=C(C)[C@@H](OC(=O)[C@H](O)[C@@H](NC(=O)OCC(C)(C)C)c3ccccc3)C[C@@](O)([C@@H](OC(=O)c3ccccc3)[C@@H]3[C@]4(OC(C)=O)CO[C@@H]4C[C@H](O)[C@@]3(C)[C@H]1O)C2(C)C | 0.019 (≈ 0.0219 µM) | 0.0074 (≈ 0.00855 µM) | 0.00065 (≈ 0.000751 µM) | 0.0015 (≈ 0.00173 µM) | 0.82
CC(=O)O[C@@H]1C2=C(C)[C@@H](OC(=O)[C@H](O)[C@@H](NC(=O)OCc3ccccc3)c3ccccc3)C[C@@](O)([C@@H](OC(=O)c3ccccc3)[C@@H]3[C@]4(OC(C)=O)CO[C@@H]4C[C@H](O)[C@@]3(C)[C@H]1O)C2(C)C | 0.057 (≈ 0.0643 µM) | 0.044 (≈ 0.0497 µM) | 0.031 (≈ 0.035 µM) | 0.012 (≈ 0.0135 µM) | –
CC(=O)O[C@@H]1C2=C(C)[C@@H](OC(=O)[C@H](O)[C@@H](NC(=O)OCC(C)C)c3ccccc3)C[C@@](O)([C@@H](OC(=O)c3ccccc3)[C@@H]3[C@]4(OC(C)=O)CO[C@@H]4C[C@H](O)[C@@]3(C)[C@H]1O)C2(C)C | 0.028 (≈ 0.0329 µM) | 0.0069 (≈ 0.0081 µM) | 0.0043 (≈ 0.00505 µM) | 0.0023 (≈ 0.0027 µM) | 1.03
